Test system: vasopressor response of angiotensin II
Test: AII Challenge: antagonism of angiotensin II vasopressor response
Assay type: in vivo
Conditions: for inhibition in vivo at 1 mg/kg / inhibition in vivo at 3 mg/kg: Rattus norvegicus; for inhibition in vivo at 1 mg/kg: iv; for inhibition in vivo at 3 mg/kg: po
In short: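 Percent antagonism is based on the systolic blood pressure rise (mmHg) to i.v. angiotensin II at 0.05 and 0.1 ug/kg. Each rat's own predose response was taken as 100%. Challenges were repeated from 30 to 300 min after i.v., i.p. or oral compound in cannulated conscious male SHR, 16-20 weeks old.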

CCCCc1nc2ccc(C3(C(=O)OC)CC4CCCN4O3)cc2c(=O)n1Cc1ccc(-c2ccccc2-c2nnn[nH]2)cc1 (mixture of isomers) [Example 78, Trans(+/-)-Methyl-2-[2-butyl-3,4-dihydro-4-oxo-3-[[2'-(1H-tetrazol-5-yl)[1,1'-biphenyl]-4-yl]methyl-6-quinazolinyl]hexahydropyrrolo[1,2-b]isoxazole-2-carboxylate]
Response Average Change (1 mg/kg i.v., AII 0.05 mcg/kg IV, 30 min post dose): 5 mmHg
Response Average Change (1 mg/kg i.v., AII 0.05 mcg/kg IV, 60 min post dose): 12.5 mmHg
Response Average Change (1 mg/kg i.v., AII 0.05 mcg/kg IV, 90 min post dose): 7.5 mmHg
Response Average Change (1 mg/kg i.v., AII 0.05 mcg/kg IV, 120 min post dose): 10 mmHg
Response Average Change (1 mg/kg i.v., AII 0.05 mcg/kg IV, 180 min post dose): 11 mmHg
Response Average Change (1 mg/kg i.v., AII 0.05 mcg/kg IV, 240 min post dose): 12.5 mmHg
Response Average Change (1 mg/kg i.v., AII 0.05 mcg/kg IV, 300 min post dose): 5 mmHg
Response Average Change (1 mg/kg i.v., AII 0.1 mcg/kg IV, 30 min post dose): 15 mmHg
Response Average Change (1 mg/kg i.v., AII 0.1 mcg/kg IV, 60 min post dose): 12.5 mmHg
Response Average Change (1 mg/kg i.v., AII 0.1 mcg/kg IV, 90 min post dose): 15 mmHg
Response Average Change (1 mg/kg i.v., AII 0.1 mcg/kg IV, 120 min post dose): 17.5 mmHg
Response Average Change (1 mg/kg i.v., AII 0.1 mcg/kg IV, 180 min post dose): 12.5 mmHg
Response Average Change (1 mg/kg i.v., AII 0.1 mcg/kg IV, 240 min post dose): 12.5 mmHg
Response Average Change (1 mg/kg i.v., AII 0.1 mcg/kg IV, 300 min post dose): 17.5 mmHg
Response Average Change (3 mg/kg P.O., AII 0.05 mcg/kg IV, 30 min post dose): 27.5 mmHg
Response Average Change (3 mg/kg P.O., AII 0.05 mcg/kg IV, 60 min post dose): 22.5 mmHg
Response Average Change (3 mg/kg P.O., AII 0.05 mcg/kg IV, 90 min post dose): 22.5 mmHg
Response Average Change (3 mg/kg P.O., AII 0.05 mcg/kg IV, 120 min post dose): 17.5 mmHg
Response Average Change (3 mg/kg P.O., AII 0.05 mcg/kg IV, 180 min post dose): 19 mmHg
Response Average Change (3 mg/kg P.O., AII 0.05 mcg/kg IV, 240 min post dose): 19 mmHg
Response Average Change (3 mg/kg P.O., AII 0.05 mcg/kg IV, 300 min post dose): 27.5 mmHg
Response Average Change (3 mg/kg P.O., AII 0.1 mcg/kg IV, 30 min post dose): 35 mmHg
Response Average Change (3 mg/kg P.O., AII 0.1 mcg/kg IV, 60 min post dose): 25 mmHg
Response Average Change (3 mg/kg P.O., AII 0.1 mcg/kg IV, 90 min post dose): 17.5 mmHg
Response Average Change (3 mg/kg P.O., AII 0.1 mcg/kg IV, 120 min post dose): 15 mmHg
Response Average Change (3 mg/kg P.O., AII 0.1 mcg/kg IV, 180 min post dose): 17.5 mmHg
Response Average Change (3 mg/kg P.O., AII 0.1 mcg/kg IV, 240 min post dose): 17.5 mmHg
Response Average Change (3 mg/kg P.O., AII 0.1 mcg/kg IV, 300 min post dose): 25 mmHg
inhibition in vivo at 1 mg/kg (0.5 h, 1 mg/kg i.v., AII 0.05 mcg/kg IV, 30 min post dose): 80%
inhibition in vivo at 1 mg/kg (0.5 h, 1 mg/kg i.v., AII 0.1 mcg/kg IV, 30 min post dose): 45%
inhibition in vivo at 1 mg/kg (1 h, 1 mg/kg i.v., AII 0.05 mcg/kg IV, 60 min post dose): 50%
inhibition in vivo at 1 mg/kg (1 h, 1 mg/kg i.v., AII 0.1 mcg/kg IV, 60 min post dose): 55%
inhibition in vivo at 1 mg/kg (2 h, 1 mg/kg i.v., AII 0.05 mcg/kg IV, 120 min post dose): 60%
inhibition in vivo at 1 mg/kg (2 h, 1 mg/kg i.v., AII 0.1 mcg/kg IV, 120 min post dose): 36%
inhibition in vivo at 1 mg/kg (3 h, 1 mg/kg i.v., AII 0.05 mcg/kg IV, 180 min post dose): 56%
inhibition in vivo at 1 mg/kg (3 h, 1 mg/kg i.v., AII 0.1 mcg/kg IV, 180 min post dose): 55%
inhibition in vivo at 1 mg/kg (4 h, 1 mg/kg i.v., AII 0.05 mcg/kg IV, 240 min post dose): 50%
inhibition in vivo at 1 mg/kg (4 h, 1 mg/kg i.v., AII 0.1 mcg/kg IV, 240 min post dose): 55%
inhibition in vivo at 1 mg/kg (5 h, 1 mg/kg i.v., AII 0.05 mcg/kg IV, 300 min post dose): 80%
inhibition in vivo at 1 mg/kg (5 h, 1 mg/kg i.v., AII 0.1 mcg/kg IV, 300 min post dose): 36%
inhibition in vivo at 1 mg/kg ([…], 1 mg/kg i.v., AII 0.05 mcg/kg IV, 90 min post dose): 70%
inhibition in vivo at 1 mg/kg ([…], 1 mg/kg i.v., AII 0.1 mcg/kg IV, 90 min post dose): 45%
inhibition in vivo at 3 mg/kg (0.5 h, 3 mg/kg P.O., AII 0.05 mcg/kg IV, 30 min post dose): 0%
inhibition in vivo at 3 mg/kg (0.5 h, 3 mg/kg P.O., AII 0.1 mcg/kg IV, 30 min post dose): -17%
inhibition in vivo at 3 mg/kg (1 h, 3 mg/kg P.O., AII 0.05 mcg/kg IV, 60 min post dose): 18%
inhibition in vivo at 3 mg/kg (1 h, 3 mg/kg P.O., AII 0.1 mcg/kg IV, 60 min post dose): 17%
inhibition in vivo at 3 mg/kg (2 h, 3 mg/kg P.O., AII 0.05 mcg/kg IV, 120 min post dose): 36%
inhibition in vivo at 3 mg/kg (2 h, 3 mg/kg P.O., AII 0.1 mcg/kg IV, 120 min post dose): 50%
inhibition in vivo at 3 mg/kg (3 h, 3 mg/kg P.O., AII 0.05 mcg/kg IV, 180 min post dose): 31%
inhibition in vivo at 3 mg/kg (3 h, 3 mg/kg P.O., AII 0.1 mcg/kg IV, 180 min post dose): 42%
inhibition in vivo at 3 mg/kg (4 h, 3 mg/kg P.O., AII 0.05 mcg/kg IV, 240 min post dose): 31%
inhibition in vivo at 3 mg/kg (4 h, 3 mg/kg P.O., AII 0.1 mcg/kg IV, 240 min post dose): 42%
inhibition in vivo at 3 mg/kg (5 h, 3 mg/kg P.O., AII 0.05 mcg/kg IV, 300 min post dose): 0%
inhibition in vivo at 3 mg/kg (5 h, 3 mg/kg P.O., AII 0.1 mcg/kg IV, 300 min post dose): 17%
inhibition in vivo at 3 mg/kg ([…], 3 mg/kg P.O., AII 0.05 mcg/kg IV, 90 min post dose): 18%
inhibition in vivo at 3 mg/kg ([…], 3 mg/kg P.O., AII 0.1 mcg/kg IV, 90 min post dose): 42%

Source: patent publication US5358951A, “Angiotensin II receptor blocking 2, 3, 6 substituted quinazolinones” (American Cyanamid Company, priority 1993, dated 1994)
